Reference: PMC8591604, “Targeting Oncogenic Src Homology 2 Domain-Containing Phosphatase 2 (SHP2) by Inhibiting Its Protein–Protein Interactions” (Journal of Medicinal Chemistry, 2021)
Where two headings read alike, the source gives them in different places. Where a SMILES comes first, the peptide text is derived from it. [ ]: non-standard residue; d: D form. The star is where a group is joined. 5FAM = O=C1OC2(c3ccc(O)cc3Oc3cc(O)ccc32)c2ccc(C(=O)*)cc21; pY = N[C@@H](Cc1ccc(OP(=O)(O)O)cc1)C(=O)O

Legend:
[1] = target: T1, SHP2Δ104 (Homo sapiens, UniProt Q06124); experiment: Dephosphorylation of phosphopeptides, malachite green phosphatase assay; format: biochemical; details: 100 μM phosphopeptide
T1 construct: the isolated PTP domain preceded by the C-SH2 domain (residues 105–528); made in house; host or cells: Escherichia coli (DE3) Rosetta2
T1 sequence (Q06124 105-528): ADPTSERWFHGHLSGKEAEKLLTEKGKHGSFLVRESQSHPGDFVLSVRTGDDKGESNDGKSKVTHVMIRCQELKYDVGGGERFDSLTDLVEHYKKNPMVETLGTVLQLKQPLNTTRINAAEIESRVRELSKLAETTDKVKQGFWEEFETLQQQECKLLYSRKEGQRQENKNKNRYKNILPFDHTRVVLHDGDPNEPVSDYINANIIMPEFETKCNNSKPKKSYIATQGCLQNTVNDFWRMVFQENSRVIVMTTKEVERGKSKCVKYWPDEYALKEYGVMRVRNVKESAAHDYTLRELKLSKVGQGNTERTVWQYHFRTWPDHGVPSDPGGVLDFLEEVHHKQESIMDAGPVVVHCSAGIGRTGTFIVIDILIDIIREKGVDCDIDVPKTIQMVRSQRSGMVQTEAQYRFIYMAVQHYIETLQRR
Method: The ability of SHP2 to dephosphorylate the phosphopeptides was evaluated through a malachite green phosphatase assay (PTP assay kit 1, Millipore). The BTAM peptide and the following monophosphorylated peptides derived from known SHP2 substrates were used for comparison: DKQVE-pY-LDLDL (GAB1Y657), EEENI-pY-SVPHD (p190A/RhoGAPY1105), and VDADE-pY-LIPQQ (EGFRY1016) (Primm). SHP2Δ104 (2.4 pmol) was incubated with each phosphopeptide at 100 μM (total volume of 25 μL) for different times. The reaction was stopped by adding 100 μL of a malachite green solution. After 15 min, the absorbance was read at 655 nm, using a microplate reader, and compared with a phosphate standard curve to determine the release of phosphate. Data obtained in the linear region of the curve were normalized to the reaction time (1 min). Each experiment was performed in duplicate.

[2] = target: T2, N-SH2 domain of SHP2 (Homo sapiens, UniProt Q06124); experiment: Fluorescence anisotropy displacement assay; format: binding; details: 1.0 nM CF-P9, 40 nM N-SH2; compared with P9
T2 construct: constructs of the N-SH2 (residues 2–111), C-SH2 (residues 109–217), and PTP (residues 212–528) domains; made in house; host or cells: Escherichia coli (DE3) Rosetta2
T2 sequence (Q06124 2-111): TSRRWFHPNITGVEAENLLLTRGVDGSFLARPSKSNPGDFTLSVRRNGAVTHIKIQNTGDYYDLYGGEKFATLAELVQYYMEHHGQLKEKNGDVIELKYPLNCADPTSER
Method: The displacement assays were carried out with the same experimental settings. In this case, the labeled peptide–protein complex was titrated with increasing amounts of the unlabeled peptide, following the decrease in anisotropy. Measurements were carried out at the same CF-peptide concentration used for the corresponding binding experiments. With regard to the protein concentration, a compromise between two requirements is needed.[90] […] Between three and five replicates were performed (the specific numbers are indicated in the figures reporting the binding experiments).
Here, [P]T and [L]T are the total protein and ligand concentrations. […]
(§2) The affinity of unlabeled peptides was determined by competition experiments, in which a sample with fixed total protein and fluorescently labeled peptide concentrations ([ 𝑃]T and [𝐿]T) was titrated with the unlabeled peptide, causing displacement of the flu orescent peptide and a decrease in
half of the bound fluorescent analog) was determined, interpolating the displacement curve using a phenomenological Hill equation:3 […]
Successively, the dissociation constant of the unlabeled peptide (𝐾𝑑𝑢) was calculated from the know values of EC50, Kd, [𝑃]𝑇 and [𝐿]𝑇, as described here below. […]
In this way, 𝐾𝑑𝑢 is expressed as a function of the known quantities EC50, Kd, [𝑃]T and [𝐿]T, without

[3] = Peptide stability in human serum (HPLC); format: in vitro ADME; details: in 3 h, positive control
Method: (§1) The peptides were dissolved in DMSO (5 mg/mL). In Eppendorf tubes, 1 mL of HEPES buffer (25 mM, pH 7.6) was temperature equilibrated at 37 °C before the addition of 250 μL of human serum and 20 μL of a peptide solution; the reaction was followed for 24 h. At fixed intervals, 100 μL of the solution was withdrawn and added to 200 μL of absolute ethanol. These samples were kept on ice for 15 min and then centrifuged at 13000 rpm for 5 min; the supernatant solutions were analyzed by HPLC and HPLC-MS with a 20% to 60% B gradient in 20 min to follow the reaction. In parallel, samples containing peptide, buffer, and ethanol only were analyzed. A degradation resistance test was also conducted in DMEM (Dulbecco’s modified Eagle’s medium). The experimental conditions are similar to those described above; the reaction was followed for 72 h. The enzymatic degradation resistance tests were followed by HPLC using a 5% to 50% B gradient over 20 min.

[4] = target: T2, N-SH2 domain of SHP2; experiment: Fluorescence anisotropy direct binding assay; details: for standard free energy of binding: assuming a 1 M standard state; for Kd: direct titration of labeled peptide
Method: Anisotropy measurements were carried out using a Horiba Fluoromax 4 spectrofluorimeter. For the binding assays, the requested peptide amount (1 or 0.1 nM) was diluted in a buffer (10 mM HEPES, 150 mM NaCl, 1 mM EDTA, and 1 mM TCEP, fluorescence buffer henceforth) and its anisotropy signal was recorded. The peptide was then titrated with increasing protein amounts, until the anisotropy signal reached a plateau at its maximum value, or up to a protein concentration at which protein aggregation and consequent light scattering affected the anisotropy values (usually >1 μM). The measurements of CF-labeled peptides were carried out using an excitation wavelength of 470 nm and collecting the anisotropy values at an emission wavelength of 520 nm. A 495 nm emission filter was used. […] Between two and six replicates were performed (the specific numbers are indicated in the figures and in the table reporting the binding experiments).
Analysis of binding curves
fractions correspond to the population of the two states.
𝑟 = 𝑥𝐵𝑟𝑚𝑎𝑥 + (1 − 𝑥𝐵)𝑟0 (1)
Here, r, r0 and rmax are the anisotropy values at a given protein concentration, in the absence of protein and when the peptide is completely bound, respectively, and 𝑥𝐵 is the molar fraction of bound peptide. This last quantity, therefore, can be derived from the anisotropy values as follows:
Kd values were obtained fitting the data with the following equation, 2 which avoids the need for the commonly used (but often unjustified) approximation of the concentration of unbound protein with
Here, [P]T and [L]T are the total protein and ligand concentrations. When allowed by the experimental conditions (i.e. when [𝐿]𝑇 ≪ 𝐾𝑑), this equation was simplified by assuming [𝑃]𝑇 ≅
as §2
half of the bound fluorescent analog) was determined, interpolating the displacement curve using a phenomenological Hill equation:3
where [I]T is the total concentration of the peptide causing the displacement, and rfin is the anisotropy corresponding to total displacement, while in this case r0 is the starting anisotropy, in the absence of displacing peptide.
Successively, the dissociation constant of the unlabeled peptide (𝐾𝑑𝑢) was calculated from the know values of EC50, Kd, [𝑃]𝑇 and [𝐿]𝑇, as described here below.
In the system where protein (P), ligand (L ) and a competitive inhibitor (I) are present, both L and I can form complexes with P (PL and PI, respectively). The following dissociation constants can be defined for the two binding equilibria:

[5] = Peptide stability in DMEM; format: in vitro ADME; details: 3 days; data not shown
Method: as §1

[6] = target: N-SH2 domain; design: method as in ref 19 (a number printed in a supplementary file, which may have a reference list of its own: not looked up in the article's list); details: Isothermal titration calorimetry; cited from earlier work
[7] = target: N-SH2 domain; design: method as in ref 48 (a number printed in a supplementary file, which may have a reference list of its own: not looked up in the article's list); details: Radioactively labeled peptide; cited from earlier work

## CC[C@H](C)[C@H](NC(=O)[C@H](Cc1ccc(OP(=O)(O)O)cc1)NC(=O)[C@H](CC(N)=O)NC(=O)[C@H](CC(C)C)NC(C)=O)C(=O)N[C@@H](CC(=O)O)C(=O)N[C@@H](CC(C)C)C(=O)N[C@@H](CC(=O)O)C(=O)N[C@@H](Cc1c[nH]c2ccccc12)C(N)=O [P8W5, LN-pY -IDLDW]
[1]
  dephosphorylation by SHP2Δ104: dephosphorylation was indeed observed

## N-pY -IDLDL [P7]
[2]
  effect of shortening the sequence on affinity (displacement curves): drastic perturbation of the complex stability

## CC[C@H](C)[C@H](NC(=O)[C@H](C)NC(=O)[C@H](CCCCN)NC(=O)CNC(=O)[C@H](Cc1ccc(O)cc1)NC(=O)[C@H](Cc1ccc(O)cc1)NC(=O)[C@H](CCCCN)NC(=O)[C@H](Cc1ccccc1)NC(=O)[C@@H](N)Cc1c[nH]c2ccccc12)C(=O)N[C@@H](Cc1ccc(O)cc1)C(=O)O [XP] (H-WFKYYGKAIY-OH)
[3]
  degradation in human serum: totally degraded

## CC[C@H](C)[C@H](NC(=O)[C@H](Cc1ccc(O)cc1)NC(=O)[C@H](CC(N)=O)NC(=O)[C@H](CC(C)C)NC(=O)CNC(=O)c1ccc2c(c1)C(=O)OC21c2ccc(O)cc2Oc2cc(O)ccc21)C(=O)N[C@@H](CC(=O)O)C(=O)N[C@@H](CC(C)C)C(=O)N[C@@H](CC(=O)O)C(=O)N[C@@H](CC(C)C)C(N)=O [CF-P9Y0, CF-GLN- Y -IDLDL] (5FAM-GLNYIDLDL-NH2)
[4]; CF-P9Y0 vs CF-P9
  affinity, times lower than the phosphorylated peptide: approximately 100 times
[4]
  standard free energy of binding: -29.6 ± 0.2 kJ/mol
  Kd: 6.6 ± 0.6 µM

## CC[C@H](C)[C@H](NC(=O)[C@H](Cc1ccc(OP(=O)(O)O)cc1)NC(=O)[C@H](CC(N)=O)NC(=O)[C@H](CC(C)C)NC(=O)CNC(=O)c1ccc2c(c1)C(=O)OC21c2ccc(O)cc2Oc2cc(O)ccc21)C(=O)N[C@@H](CC(=O)O)C(=O)N[C@@H](CC(C)C)C(=O)N[C@@H](CC(=O)O)C(=O)N[C@@H](CC(C)C)C(N)=O [CF-P9, CF-GLN-pY -IDLDL] (5FAM-GLN[pY]IDLDL-NH2)
[4]
  standard free energy of binding: -41.6 ± 0.1 kJ/mol
  Kd: 0.053 ± 0.002 µM

## CC[C@H](C)[C@H](NC(=O)[C@H](Cc1ccc(OP(=O)(O)O)cc1)NC(=O)[C@H](CC(N)=O)NC(=O)[C@H](CC(C)C)NC(C)=O)C(=O)N[C@@H](CC(=O)O)C(=O)N[C@@H](CC(C)C)C(=O)N[C@@H](CC(=O)O)C(=O)N[C@@H](CC(C)C)C(N)=O [P8, LN-pY -IDLDL] (Ac-LN[pY]IDLDL-NH2)
[2]
  effect of shortening the sequence on affinity (displacement curves): No significant loss of affinity
[1]
  dephosphorylation by SHP2Δ104: dephosphorylation was indeed observed

## CC[C@H](C)[C@H](NC(=O)[C@H](Cc1ccc(C(F)(F)P(=O)(O)O)cc1)NC(=O)[C@H](CC(N)=O)NC(=O)[C@H](CC(C)C)NC(=O)CNC(C)=O)C(=O)N[C@@H](CC(=O)O)C(=O)N[C@@H](CC(C)C)C(=O)N[C@@H](CC(=O)O)C(=O)N[C@@H](Cc1c[nH]c2ccccc12)C(N)=O [OP, GLN- F2Pmp-IDLDW]
[5]
  stability in DMEM: stable

## SLN-pY-IDLDLVKD [IRS-1 pY1172]
[6]
  Kd: 51 nM
[7]
  Kd: 1 to 10 µM
